Measured values published in article PMC7761779 (Polymers, 2020).
Like-named read-outs stand apart in the source and are kept apart here.

Assays:
[1] = Dynamic Vapor Sorption (DVS) study of NIA solutions; type: physicochemical; conditions: label = vehicle of a 5% (w/v) NIA solution; 5 μL; 32 ± 1 °C, 50 ± 2% RH; n = 3
Description: Nitrogen was used as the carrier gas (200 mL/min). To monitor mass differences, 15 mm quartz glass pans connected to a microbalance accurate to 0.00001 mg were employed. Then, 5 μL solutions of 5% NIA (w/v) were added to the pans, and data were recorded using a Universal Analysis 2000 (TA Instrument, New Castle, DE, USA). Temperature and relative humidity (RH) were maintained over the course of the studies at 32 ± 1 °C and 50 ± 2% RH, respectively.

[2] = set-up: method as in PMID 30529662; conditions: label = neat solvent of the NIA solution; porcine skin; cited from earlier work
[3] = set-up: method as in PMID 30529662; conditions: label = neat solvent of the NIA solution; finite dose; porcine skin; cited from earlier work
[4] = set-up: method as in PMID 30529662; conditions: label = solvent; cited from earlier work
[5] = set-up: method as in PMID 3958901; conditions: PEG 400/water mixtures; cadaver skin; infinite dose; cited from earlier work
[6] = set-up: method as in Suwanpidokkul et al.; conditions: porcine skin, infinite dose, ref Suwanpidokkul et al., cited from earlier work

Row | SMILES | Percentage of applied weight recovered at 24 h (DVS) [1] [%] | Skin retention of NIA [2] [%] | Cumulative permeation of NIA at 24 h [3] [μg/cm^2] | Flux trend with increasing PEG 400 concentration in the formulation [5] | further results
1 | CO[C@H]1CO[C@H]2[C@@H]1OC[C@H]2OC [DMI, dimethyl isosorbide] | 76.3 ± 0.1 | 16.7 ± 6.3 | 103.6 |  | 
2 | CC(O)CO (centres unmarked) [PG, propylene glycol] | 44.6 ± 0.02 |  | 46.0 |  | 
3 | CCOCCOCCO [TC, Transcutol® P] | 17.6 ± 0.5 | 16.4 ± 5.8 | 95.1 |  | Solubility of NIA [4]: 8.0 ± 0.6%
4 | N=C(N)N/N=C/c1c(Cl)cccc1Cl [guanabenz] |  |  |  | drop linearly | 
5 | O=C(O)CCc1nc(-c2ccccc2)c(-c2ccccc2)o1 [oxaprozin] |  |  |  | drop linearly | 
6 | Cc1cn([C@H]2C[C@H](N=[N+]=[N-])[C@@H](CO)O2)c(=O)[nH]c1=O [zidovudine] |  |  |  |  | Flux ([6]; PEG 400/water vehicle): 15.52 ± 0.60 μg/cm^2/h; Flux ([6]; ethanol/water vehicle): 9.96 ± 0.63 μg/cm^2/h; Flux ([6]; isopropanol/water vehicle): 10.35 ± 0.67 μg/cm^2/h
